Where two headings read alike, the source gives them in different places.
What was measured:
ABL1 = ABL1 (Homo sapiens (Human), UniProt P00519); experiment: In vitro kinase panel (SelectScreen); assay type: biochemical
Experimental: In vitro kinase screen and competitive binding assay. […] 11-point Kd curves were determined for hits identified during the initial screen.

HUVECs = experiment: XTT viability assay in HUVECs; assay type: cell-based, human; details: 72 h, read-out: EC50, endothelial cell viability
Experimental: FIG. 1A-1F illustrate molecular modeling and assay screening to compounds for dual targeting of PDGFRβ and RAF. (FIG. 1A) Molecular modeling of the amino-triazole based small molecules in PDGFRβ and RAF, respectively. […] A homology model of PDGFRβ was created with a structurally-related family member (VEGFR2, PDB 1y6b). […] To autophosphorylation, immunoblots were carried out with a phospho-tyrosine antibody. Membranes were stripped and reprobed for total PDGFRβ levels. […] (FIG. 1D) Structure activity relationships of the amino-triazole based small molecules comparing both PDGFRβ and B-RAF. […] Curves represent the average of 3 separate experiments, error bars represent ±SEM.
For XTT assays, cells were grown in 96-well plates overnight and all assays were conducted in growth medium will full serum and additives. […] Dose-response curves were plotted using GraphPad Prism software and EC50s were calculated using this program.

XPA-1 cells = experiment: Cell cycle analysis of XPA-1 cells (flow cytometry); assay type: cell-based; details: 5 μM, 20 h
Experimental: For cell cycle analysis, cells were grown in complete DMEM+10% FBS in the presence of each inhibitor and harvested after 20 h of inhibitor treatment. Cell cycle analysis was performed by flow cytometry following propidium iodide staining. The cells were harvested, fixed with ice cold methanol, treated for 45 min with 10 μg/ml of RNAse and resuspended in PBS containing 10 μg/ml of PI, and analysed by flow cytometry. […] For corresponding confocal microscopy images, cells attached to coverslips were fixed with cold methanol and permeabilized in PBS containing 0.1% triton X-100 for two minutes and blocked for 60 minutes, at room temperature with 2% BSA in PBS. Cells were stained with the DNA binding dye TOPRO-3 (Invitrogen) to label the DNA and laminB (Santa Cruz) to label the nuclear envelope. The anti-Lamin B antibody was used at a 1:100 dilution for two hours at room temperature. After washing several times with PBS, cells were stained for two hours at room temperature, with secondary antibody diluted 1:300 and co-incubated with TOPRO-3 (1:500) (Invitrogen). Samples were mounted in Vectashield hard-set mounting media (Vector Laboratories) and imaged on a Nikon Eclipse Cl confocal microscope with a 1.4 NA 60× oil-immersion lens, using minimum pinhole (30 μm). Images were captured and processed using EZ-C1 3.50 imaging software (Nikon, Inc). Scale bars, 10 μm.

[1] = test system: Tg(fli1:EGFP) zebrafish embryos; experiment: Zebrafish angiogenesis model; details: for blood vessel formation in zebrafish embryos: treated 20-48 hpf, 1 μM 6 or SU5416, up to 10 μM 3; for effect on established intersegmental vessels: compound added at 30 hpf, […] 6, 1 μM sorafenib; for viability of zebrafish embryos: treatment at 48-72 hpf
Experimental: Embryos were treated with 1 μM 6 or SU5416, or 10 μM 3 from 20 hours post fertilization (hpf) until 48 hpf. Representative 3D reconstructions of the blood vasculature are shown for both the head and tail regions of the embryo. Designations for the major vessels in the head and tail of the zebrafish embryo at 48 hpf are available in FIG. 8A. (FIG. 3B) Disruption of lumen formation in the zebrafish during late vessel maturation. Zebrafish treated with either 1 μM 6 or 10 μM 3 from 20-48 hpf were imaged at 35 and 48 hpf. […] Shown is 3D overlap reconstruction of the GFP expressing intersegmental vessels with TUNEL-positive nuclei at 48 hpf (shown in red). Representative phase contrast views as well as quantification of intersegmental vessel volumes from FIG. 3A and FIG. 3B can be found in FIG. 8B-D, respectively. (FIG. 3C) Time course of drug addition to zebrafish. […] At 30 hpf the zebrafish embryos established early vessels with evident lumens. […] All scale bars=100 μm.
Z-stacks from laser scanning confocal microscopy are shown depicting formation of the intersegmental vessels at 48 hpf. n=6 embryos/treatment. (FIG. 4B) HUVECs were co-cultured with hTERT-human hepatic stellate cells in a 3-D collagen matrix in the presence of complete EBM-2 medium to monitor pericyte-associated endothelial tube formation. […] The endothelial tubes were stained at 24 h by adding 2 μl FITC labeled Ulex europaeus lectin (Vector labs) per well. Images were acquired 48 h post seeding of the cells. One representative panel from 3 independent experiments is shown. Green—FITC lectin labeled endothelial cells, Red—DiIC(3) labeled stellate cells. […] Scale bar=200 μm. (FIG. 4C) Tube lengths were measured using Metamorph software for each tube for all 10 fields that were acquired. The % pericyte-covered tube length was calculated from the ratio of tube length sums for the tubes with and without pericyte contact. Error bars are reported as ±SEM of two wells per group. *indicates p<0.05 compared to DMSO group.
Zebrafish studies. Transgenic Tg(fli1:EGFP) zebrafish embryos were purchased from www.zfin.org and reported elsewhere (Lawson, et al. (2002) Dev Biol 248:307-318) and maintained according to (“Zebrafish—A Practical Approach”, Oxford University Press, 2002). Compounds in DMSO stock solutions were diluted directly into the water and vessels were imaged for GFP expression using a Nikon c1-si confocal microscope. Apoptosis was measured by TUNEL staining using the Apoptag in situ Red Fluorescence Kit (Chemicon) with a protocol described previously (Stanton, et al. (2006) The Journal of biological chemistry 281:28782-28793).

HCT116 = experiment: Tumor cell viability; assay type: cell-based, human; details: Colon HCT116, K-Ras
Experimental: (§1) For XTT assays, cells were grown in 96-well plates overnight and all assays were conducted in growth medium will full serum and additives. Compounds were serially diluted in DMSO and then further diluted into the medium to give the appropriate concentration while minimizing precipitation associated with serial diluting in medium alone Inhibitors were added for 72 h and cell viability was quantified at 450 nm after the addition of 1 mg/ml XTT solution (Sigma-Aldrich) in phenol-red free DMEM medium containing […] (Sigma-Aldrich). Dose-response curves were plotted using GraphPad Prism software and EC50s were calculated using this program.

MDA-MB231 = experiment: Tumor cell viability; assay type: cell-based, human; details: Breast AC MDA-MB231, B-RAF/Ras
Experimental: as §1

[2] = HUVECs, full growth medium containing 10% FBS

Row | SMILES | % Inhibition at 10 μM (ABL1) [%] | EC50 (HUVECs; [2]) [µM] | cell cycle / mitotic progression (XPA-1 cells) | blood vessel formation in zebrafish embryos [1] | EC50 (HCT116) [µM] | EC50 (MDA-MB231) [µM] | effect on established intersegmental vessels [1] | viability of zebrafish embryos [1] | EC50 (HUVECs; Homo sapiens, HUVEC) [µM] | EC50 (HCT116; Homo sapiens, HCT-116) [µM] | EC50 (MDA-MB231; Homo sapiens, MDA-MB-231) [µM]
1 | Nc1cc(Oc2ccc(-c3nnc(Nc4cccc(C(F)(F)F)c4)[nH]3)cc2)ncn1 [Compound 3] | 4 | 18 | showed no effect | had no effect | – | – | – | – | – | – | –
2 | CSc1nc(N)cc(Oc2ccc(-c3nnc(Nc4cccc(C(F)(F)F)c4)[nH]3)cc2)n1 [Compound 6] | 3 | 0.54 | G2/M arrest in all tumor cell lines tested | failed to form mature intersegmental vessels | 0.4 | 0.48 | did not suppress the vascular growth and patterning | all viable | – | – | –
3 | CNC(=O)c1cc(Oc2ccc(NC(=O)Nc3ccc(Cl)c(C(F)(F)F)c3)cc2)ccn1 [sorafenib, reference compound] | – | – | had no effect on mitotic progression | – | – | – | disrupted mature intersegmental blood vessels | induced death in all animals tested | 13.2 | 8.21 | > 10
